From patent publication US20260263593A1, “ALLERGY ANTIGEN AND EPITOPE THEREOF” (HOYU CO., LTD., priority 2018, published 2026)

How the values were obtained:
[1] = tested on: IgE antibodies from patients having allergies to each food; assay: Confirmation of epitope cross-reactivity by ELISA with N-terminally biotinylated peptides; format: binding, human; conditions: serum of allergic patient versus nonallergic subject
Procedure: The binding activity of peptides comprising the amino acid sequences described in the column “Synthesis sequence” and the rightmost column “SEQ ID NO” of Table 3 against IgE antibodies from patients having allergies to each food described in the column “Food with which cross-reactivity was confirmed” in Tables 3-1 to 3-50 was confirmed by ELISA. The peptides were synthesized such that the peptides were N-terminally biotinylated by the Fmoc method.
To be specific, ELISA was carried out according to the following procedure. • (1) The concentrations of the biotinylated peptides were adjusted to 10 μg/mL with PBST (0.1% Tween 20). • (2) Each peptide solution was added at 20 μL to each well of a 384-well plate coated with streptavidin, and shaken at room temperature for one hour. After collection of the solution, the wells were washed with PBS five times. • (3) Pierce Protein-Free (PBS) Blocking Buffer (produced by Thermo) was added at 40 μL thereto and shaken at room temperature for one hour. After removal of the solution, the wells were washed with PBST five times. • (4) 2% serum/Canget SignalSolution I (produced by TOYOBO) was added at 20 μL thereto and shaken at room temperature for one hour. After removal of the solution, the wells were washed with PBST five times. • (5) A diluted secondary antibody solution (1:10000, Canget SignalSolution II (produced by TOYOBO)) was added at 20 μL thereto and shaken at room temperature for one hour. After removal of the solution, the wells were washed with PBST five times. • (6) 1-Step Ultra TMB-ELISA (produced by Thermo) was added at 20 μL thereto and shaken at room temperature for 15 minutes. • (7) 2 M H2SO4 was added at 20 μL thereto. Absorbance at 450 nm was measured.
Peptides having these amino acid sequences were prepared by the same procedure as described in Example 4(A), and the presence or absence of binding thereto of IgE antibodies present in the serum of an allergic patient and the serum of a nonallergic subject was measured. The serum of two nonallergic subjects was measured, and values obtained by dividing the measurement values by an average value thereof were described.
The ordinate of each figure depicts “absorbance of the allergic patient/absorbance of the nonallergic patient (healthy subject)”. Different contrasts of two bar graphs for the same sequences mean separate patients. For example, graph No. 8 and No. 10 in FIG. 7 are results about different patients as to peptides having the same sequences. The names of the cooking ingredients described in each graph are the names of cooking ingredients containing a polypeptide comprising an amino acid sequence serving as the basis of each synthetic sequence used.

[2] = tested on: IgE antibody present in the serum of a shrimp-allergic patient; assay: Epitope mapping (1): array of overlapping 15-amino-acid peptides, chemiluminescence; format: binding, human; conditions: 15-amino-acid peptide array; serum of 37 patients; difference from N2nd value of 5 non-shrimp-allergic subjects at least 35,000
Procedure: Epitope mapping was carried out using a library of overlapping peptides (length: 15 amino acids) corresponding to the amino acid sequences identified as allergy components of shrimp and the amino acid sequence of arginine kinase. Specifically, the library of overlapping peptides was prepared on the basis of the amino acid sequences of SEQ ID NOs: 117, 141, 146, 2, 45, 87, 276, 161, 230, 179, 362, 381, 399, 421, 455, 481, 486, 520, 541, 300 and 306, and arginine kinase.
The peptides to be synthesized were shifted by 10 amino acids.
For preparation of peptide arrays, the Intavis CelluSpots™ technique was used. Specifically, the peptide arrays were prepared by the following procedure: (1) synthesizing peptides of interest on amino-modified cellulose disks using an automated chemical synthesis apparatus (Intavis MultiPep RS), (2) dissolving the amino-modified cellulose disks to obtain a cellulose-bound peptide solution, and (3) spotting the cellulose-bound peptides onto coated glass slides. The details of each procedure are as described below.
Peptide synthesis was carried out in incremental steps through 9-fluorenylmethoxycarbonyl (Fmoc) chemical reaction on amino-modified cellulose disks in 384-well synthesis plates. Specifically, amino acids in which a Fmoc group is bonded to an amino group were activated in a solution of N,N′-diisopropylcarbodiimide (DIC) and 1-hydroxybenzotriazole (HOBt) in dimethylformamide (DMF) and added dropwise to the cellulose disks so that the Fmoc group-bound amino acids were bound to the amino groups on the cellulose disks (coupling). Unreacted amino groups were capped with acetic anhydride and washed with DMF. Furthermore, the Fmoc groups were eliminated from the amino groups of the amino acids bound to the amino groups on the cellulose disks by treatment with piperidine and washing with DMF. The amino acids bound to the amino groups on the cellulose disks were repetitively subjected to the coupling, the capping, and the Fmoc group elimination described above to elongate the amino terminus for peptide synthesis.
The peptides-bound cellulose disks of interest obtained above in the subsection titled “(1) Synthesis of peptide” were transferred to 96-well plates and treated with a side chain deprotection mixed solution of trifluoroacetic acid (TFA), dichloromethane, triisopropylsilane (TIPS), and water for deprotection of amino acid side chains. Then, the deprotected cellulose-bound peptides were dissolved in a mixed solution of TFA, trifluoromethanesulfonic acid (TFMSA), TIPS, and water and precipitated in tetrabutyl methyl ether (TBME), and the precipitate was resuspended in dimethyl sulfoxide (DMSO) and mixed with a mixed solution of NaCl, sodium citrate, and water to obtain a peptide solution for slide spotting.
The peptide solution for slide spotting obtained above in the subsection titled “(2) Dissolution of amino-modified cellulose disk” was spotted onto Intavis CelluSpots™ slides using Intavis Slide Spotting Robot, and the slides were dried to prepare peptide arrays.
The presence or absence of binding, to each peptide fragment, of an IgE antibody present in the serum of a shrimp-allergic patient was measured through antigen-antibody reaction using the peptide arrays. […]

Question: For “SEQ ID NO: 636: polypeptide consisting of 4 amino acid residues, epitope sequence of polypeptide (E9) (SQKE; VAR_SEQ 1..4 epitope)”, which Epitope cross-reactivity [1] is on record?
Answer: Its Epitope cross-reactivity is “confirmed in many samples”.

Question: Which Epitope cross-reactivity [1] does the source give for “SEQ ID NO: 595: polypeptide consisting of 4 amino acid residues, epitope sequence of polypeptide (E5) (MEEL; VAR_SEQ 1..4 epitope)” here?
Answer: The Epitope cross-reactivity was “confirmed in many samples”.

Question: For “SEQ ID NO: 587: polypeptide consisting of 4 amino acid residues, epitope sequence of polypeptide (E4) (ELEE; VAR_SEQ 1..4 epitope)”, which Epitope cross-reactivity [1] is on record?
Answer: Its Epitope cross-reactivity is “confirmed in many samples”.

Question: For “SEQ ID NO: 655: polypeptide consisting of 4 amino acid residues, epitope sequence of polypeptide (E11) (KNAK; VAR_SEQ 1..4 epitope)”, which Epitope cross-reactivity [1] is on record?
Answer: The Epitope cross-reactivity was “confirmed in many samples”.

Question: How did the Epitope cross-reactivity [1] turn out when “SEQ ID NO: 593: polypeptide consisting of 4 amino acid residues, epitope sequence of polypeptide (E4) (TLLEPE; VAR_SEQ 1..6 epitope)” was run?
Answer: The Epitope cross-reactivity was “confirmed in many samples”.

Question: “SEQ ID NO: 662: polypeptide consisting of 4 amino acid residues, epitope sequence of polypeptide (E11) (NAKR; VAR_SEQ 1..4 epitope)” was tested. Which Epitope cross-reactivity [1] did it give?
Answer: Its Epitope cross-reactivity is “confirmed in many samples”.

Question: “E5: common 15-residue IgE-binding epitope sequence of polypeptide (E5), myosin heavy chain type 2-derived (GTMEELRDERLAKII; VAR_SEQ 1..15 epitope) [Epitope E5]” was tested. Which “Peptide bound to an IgE antibody in serum in a patient-specific manner” value [2] did it give?
Answer: The value was “bound to an IgE antibody in serum in a patient-specific manner”.

Question: Which “Peptide bound to an IgE antibody in serum in a patient-specific manner” value [2] does the source give for “E6: common 15-residue IgE-binding epitope sequence of polypeptide (E6), myosin heavy chain type 2-derived (KDHQIRNINDEISHQ; VAR_SEQ 1..15 epitope) [Epitope E6]” here?
Answer: Its value is “bound to an IgE antibody in serum in a patient-specific manner”.
